From ChEMBL document CHEMBL1201862, “PubChem BioAssay data set” (2004) come the findings set out here.

Some test systems named below: BT-549; Hs-578T; DLD-1; HOP-18; M19-MEL; SNB-78; XF498; LXFL 529.
Assay in all cases: NCI tumour cell line growth inhibition, 48 h

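96-well plates; 48 h exposure; 5 concentrations. Endpoints by linear interpolation between flanking doses. Not reached: highest tested concentration assigned. Abbreviation: GI50, concentration required for 50% inhibition of growth.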 Activity calls are given as the source filed them. Rule as the data show it: active = GI50 up to about 1.1 µM and inactive = higher.

Take `CCOC(=O)CN1C(=O)c2c(NC(=O)C(=O)O)cccc2S1(=O)=O`: the GI50 in the assay with BT-549 and in the assay on Hs-578T was > 100 µM (inactive) throughout.

With `O=C1OC(=O)C2=C1C(c1cccs1)C=C(c1cccnc1)N2c1ccncc1` (centres undefined), the GI50 with BT-549 was 15.5 µM (inactive); with Hs-578T, 18.7 µM (inactive).

As to `COC1OC(COC(=O)c2cc(O)c(O)c(O)c2)C(OC(=O)c2cc(O)c(O)c(O)c2)C(OC(=O)c2cc(O)c(O)c(O)c2)C1OC(=O)c1cc(O)c(O)c(O)c1` (centres undefined), in the assay with Hs-578T, the GI50 was > 100 µM (inactive).

As to `COc1cccc(C2SCc3nc4ccccc4n32)c1` (centres undefined), the GI50 is 88.1 µM (inactive) with DLD-1, > 100 µM (inactive) in the assay on HOP-18, 46.6 µM (inactive) in the assay with M19-MEL and > 100 µM (inactive) in the assay with SNB-78.

With `CCOC(C)O[C@H]1C(=O)OCC1(C)C` (some centres undefined), the GI50 in the assay on Hs-578T is > 100 µM (inactive).

For `CSc1c(C#N)c2n(c3ccccc13)c1ccccc1[n+]2C`, the values for the GI50 in the assay on BT-549 and in the assay on Hs-578T were 19.7 µM (inactive) and 30.5 µM (inactive), respectively.

As to `CC(=O)OCC1OC(OC2CC3C(C)(C)C(OC(C)=O)CC[C@]3(C)C3CCC45CC4(CCC5[C@@H](C)C[C@H](O)C(O)C(C)(C)O)[C@]23C)C(O)C(O)C1O` (some centres undefined), the GI50 in the assay with BT-549 and with Hs-578T was > 10 µM (inactive) each time.

On to `C[C@@H]1OC(=O)C[C@H]2CC(=O)N(CCC3CN(S(=O)(=O)C(F)(F)F)c4ccccc43)C[C@@H]21` (some centres undefined), for which the GI50 in the assay with Hs-578T is 85.1 µM (inactive).

For the compound `O=c1c2cccnc2ncn1CCCN1CCCCC1`, the GI50 in the assay on DLD-1, with M19-MEL, with SNB-78 and with XF498 was > 100 µM (inactive) each time.

`O=C1/C(=C/c2ccc(F)cc2)CNC/C1=C\c1ccc(F)cc1`: the GI50 is 1.01 µM (active) in the assay with BT-549 and 4.6 µM (inactive) in the assay on Hs-578T.

As for `CCOP1(=O)CC(C)=C(Cl)C(OC)C1` (centres undefined), the GI50 in the assay with BT-549 and with Hs-578T was > 100 µM (inactive) throughout.

For `CCOC(=O)C(NC(=O)Nc1ccccc1F)(OC)C(F)(F)F` (centres undefined), the GI50 with BT-549 and in the assay with Hs-578T was > 100 µM (inactive) throughout.

With `COc1ccc(C(=O)CCN(C)C)c2ccccc12`, the GI50 was 19.3 µM (inactive) in the assay on BT-549 and 23.6 µM (inactive) in the assay with Hs-578T.

In the case of `NCC(O)CSP(=O)(O)O` (centres undefined), the GI50 in the assay with BT-549 and with Hs-578T was > 100 µM (inactive) in each case.

Consider `C[Si](C)(C)C#CCOC=C1CC1`, for which the GI50 with BT-549 and with Hs-578T was > 100 µM (inactive) throughout.

In the case of `COC1(OC)C2C=CC1C([C@](C)(N)CO)C2` (some centres undefined), the GI50 in the assay on BT-549 and with Hs-578T was > 100 µM (inactive) throughout.

Regarding `CNC(=O)Oc1ccc(-c2cn3cc(OC(=O)NC)ccc3n2)cc1`, the GI50 with BT-549 was > 100 µM (inactive).

For `O=C1c2ccccc2C(=O)c2nn(N=P(CP(=Nn3nc4c(n3)C(=O)c3ccccc3C4=O)(c3ccccc3)c3ccccc3)(c3ccccc3)c3ccccc3)nc21`, the GI50 in the assay on BT-549 and with Hs-578T was > 100 µM (inactive) throughout.

On to `[O-][n+]1c(CN2CCCCC2)nc2cccc3c2c1-c1ccccc1-3`, for which the GI50 with BT-549 is 48.3 µM (inactive).

As for `Nc1n[nH]c2nc3ccc(C(F)(F)F)cc3nc12`, the GI50 in the assay with BT-549 is 23.1 µM (inactive); in the assay on Hs-578T, 28.5 µM (inactive).

With `CSc1ccc(Nc2cc(=O)[nH]c(=O)[nH]2)cc1`, the GI50 in the assay with BT-549 and in the assay on Hs-578T was > 100 µM (inactive) in each case.

In the case of `CCOC(=O)c1cnc(N(C)C)nc1SC(=N)N`, the GI50 in the assay on BT-549 and in the assay with Hs-578T was > 100 µM (inactive) each time.

As for `COC(OC)c1cc2c(cc1C=O)OCO2`, the GI50 with DLD-1 is 34.9 µM (inactive); in the assay on M19-MEL it was > 100 µM (inactive); with SNB-78, > 100 µM (inactive).

Take `O=[N+]([O-])c1ccc(S(=O)(=O)Cc2ccccc2)c2nonc12`: the values for the GI50 in the assay with BT-549 and in the assay on Hs-578T were 18.5 µM (inactive) and 24.3 µM (inactive), respectively.

Turning to `COc1ccc2oc(S(=O)(=O)N3CC(CCl)c4ccc(N)cc43)cc2c1` (centres undefined), the GI50 is 2.31 µM (inactive) in the assay with BT-549 and 0.0161 µM (active) in the assay on Hs-578T.

Consider `Nc1nc(SC/C=C/c2ccccc2)c2[nH]cnc2n1`, for which the GI50 with BT-549 was 28.2 µM (inactive); in the assay with Hs-578T, 16.7 µM (inactive).

With `CN(CC(=O)O)c1ccc(/C=C/c2ccnc3ccccc23)cc1`, the figures for the GI50 in the assay with BT-549 and with Hs-578T were 16.3 µM (inactive) and 25.4 µM (inactive), respectively.

Regarding `Cc1c2c(c(C)c3c4c(oc13)CCCC4)C=NCC2`, the GI50 with BT-549 is 16.8 µM (inactive); with Hs-578T, 17 µM (inactive).

Turning to `COc1ccc(C2C3CCc4ccccc4C3=NN2S(=O)(=O)c2ccc(Cl)cc2)cc1` (centres undefined), the GI50 with BT-549 was 44.7 µM (inactive); with Hs-578T, 33 µM (inactive).

`CCC(C)n1c(C)nc2c1C(=O)c1ccccc1C2=O` (centres undefined): the GI50 is 27.2 µM (inactive) in the assay on DLD-1; 33.4 µM (inactive) with LXFL 529; 18.2 µM (inactive) in the assay on M19-MEL; > 100 µM (inactive) in the assay with SNB-78; 44.8 µM (inactive) in the assay on XF498.

Consider `O=NN1CCNC1Cc1ccccc1` (centres undefined), for which the GI50 with BT-549 and with Hs-578T was > 100 µM (inactive) each time.

Consider `O=S(=O)(O)c1ccc(Nc2ccnc3cc(Cl)ccc23)cc1`, for which the GI50 in the assay on BT-549 and in the assay with Hs-578T was > 100 µM (inactive) each time.

With `O=C(O)C(CO)NC(=O)C1C(C(=O)O)C(c2ccccc2[N+](=O)[O-])C=C(c2ccco2)N1c1ccncc1` (centres undefined), the GI50 with BT-549 is 5.85 µM (inactive); in the assay with Hs-578T, 13.5 µM (inactive).
